Results on ten molecules are retold here after publication PMC10920327, “Prediction of anticancer peptides derived from the true lectins of Phoenix dactylifera and their synergetic effect with mitotane” (Frontiers in Pharmacology, 2024).

For orientation: IC50 means the midpoint of a concentration-inhibition curve.

The test system of one assay is T47D. Nature of the assay: MTT cell viability assay, T47D. It is filed as cell-based, human. The note with it: Table 3, 48 h, peptide alone. As for the experimental part:
MCF-7, T47D (breast cancer), and HepG2 (liver cancer) were donated by the Tissue Culture Unit, Department of Biochemistry, Faculty of Science, King Abdulaziz University. Selected human cell lines were cultured in DMEM media with 10% fetal bovine serum (FBS) at 37°C in a CO2 incubator. After 70%–90% confluence, 5 mL of 0.25% trypsin is injected to separate the cells. The cells were counted using trypan blue, and the cell concentration was set at 10^5/mL. A 96-well plate was filled with […] in each well, and the plate was then incubated for 24 h.
Mitotane, marketed as Lysodren, functions as a steroidogenesis inhibitor and cytostatic antineoplastic drug. It is employed for treating adrenocortical carcinoma and Cushing’s syndrome ([Lo Iacono et al., 2021]). In this study the media in each well was replaced to contain media containing peptides in varying concentrations (U1, U2, U3, U4, U5, U6, U7, U8, and U9). U3 and U7, which have the lowest IC50 values, were chosen to be combined with mitotane. Mitotane concentrations ranged from 20 to 600 µM. U3 and U7 were combined with mitotane using two different preparation techniques. Various concentrations of U3 or U7 (40–1500 µM) and mitotane (20–600 µM) were serially diluted. serial dilution of mitotane concentration with 500 µg/mL of U3 or U7 at a fixed concentration Each concentration was repeated four times.
After 48 h of incubation at 37°C, 100 µL of the 0.5 mg/mL MTT was changed with media containing the medication. At 37°C in the dark, the 96-well plate was incubated for 4 h. After removing the MTT and replacing it with 100 µL of DMSO, the plate was allowed to rest for 15 min. The absorbance of each well in 96 well plate was read at wave length 595 nm by ELISA reader (Bio-RAD microplate reader, Japan).
The treated cells viability and IC50 were expressed as the mean ± standard deviation (SD). The percentage viability was calculated by multiplying the absorbance of treated cells by 100 and dividing the absorbance of untreated cells. The software GraphPad Prism (version 9.0, San Diego, CA, United States) was conducted to calculate the IC50 of peptides, mitotane and their combination.
For orientation: Tetrazolium dyes change colour on reduction, which living cells bring about.

In assay [1] the test system is MCF-7. The following applies: MTT, 48 h; for % of cell viability of MCF-7, mitotane alone: mitotane 25 µg/mL alone.
Method: (§1) Selected human cell lines were cultured in DMEM media with 10% fetal bovine serum (FBS) at 37°C in a CO2 incubator. After 70%–90% confluence, 5 mL of 0.25% trypsin is injected to separate the cells. The cells were counted using trypan blue, and the cell concentration was set at 10^5/mL. A 96-well plate was filled with 100 mL in each well, and the plate was then incubated for 24 h.
(§2) In this study the media in each well was replaced to contain media containing peptides in varying concentrations (U1, U2, U3, U4, U5, U6, U7, U8, and U9). […] Mitotane concentrations ranged from 20 to 600 µM. U3 and U7 were combined with mitotane using two different preparation techniques. Various concentrations of U3 or U7 (40–1500 µM) and mitotane (20–600 µM) were serially diluted. serial dilution of mitotane concentration with 500 µg/mL of U3 or U7 at a fixed concentration Each concentration was repeated four times.
For assay [2], the system named is HepG2. The note with it: for IC50 / % of cell viability of HepG2, mitotane alone: 48 h; for % of cell viability of HepG2, mitotane alone: mitotane 25 µg/mL (80 µM) alone, MTT, 80 µM.
Method: as §1, §2
Assay [3] deals with HepG2. Nature of the assay: cells. The following applies: Homo sapiens, HepG2, read-out: IC50 value against HepG2, single agent.
Method: as §1, §2
The test system of assay [4] is MCF-7. Nature of the assay: cells. The note with it: Homo sapiens, MCF7, read-out: IC50 value against MCF-7, single agent.
Method: as §1, §2
[5] abbreviates: mean ± SD, n = 3, read-out: IC50 value against T47D.
Where [6] appears, read: range from GraphPad fit, read-out: IC50 range against T47D.
The mark [7] stands for this setting: read-out: IC50 range against MCF-7, Table 3, peptide alone, range from GraphPad fit.
Setting [8] is: read-out: IC50 value against MCF-7, Table 3, peptide alone, mean ± SD, n = 3.
The mark [9] stands for this setting: read-out: IC50 value against MCF-7, single agent, Table 4/Figure 2, U3, U7 40–1500 µM or mitotane alone, mean ± SD, n = 3.

Like-named read-outs stand apart in the source and are kept apart here. No end group written: not given here.

Turning to AVGSASPTL [Peptide U6], the IC50 with T47D (setting [5]) was 5900 ± 119 µM; in the assay with T47D (setting [6]), 2520 to 13800 µM; in the assay with MCF-7 [1] (setting [7]) it was 1360 to 2080 µM; with MCF-7 [1] (setting [8]) it was 1680 ± 74.3 µM.

For the molecule NGSIPATWASL [Peptide U3], the IC50 in the assay on HepG2 [2] was 561 ± 39.3 µM; in the assay on T47D (setting [5]), 518 ± 34.9 µM; with T47D (setting [6]) it was 435 to 616 µM; in the assay on MCF-7 [1] (setting [7]), 373 to 617 µM; with MCF-7 [1] (setting [9]), 556 ± 43.5 µM; with MCF-7 [1] (setting [8]), 480 ± 55 µM.

Turning to NEEENTHISTR [Peptide U4], the IC50 in the assay on T47D (setting [5]) was 872 ± 23.4 µM; in the assay with T47D (setting [6]) it was 723 to 1050 µM; in the assay on MCF-7 [1] (setting [7]) it was 261 to 338 µM; with MCF-7 [1] (setting [8]), 297 ± 19.7 µM.

In the case of HDNTAHPAPDS [Peptide U9], the IC50 in the assay on T47D (setting [5]) was 5460 ± 99.3 µM; with T47D (setting [6]), 2620 to 11400 µM; with MCF-7 [1] (setting [7]) it was 351 to 496 µM; in the assay with MCF-7 [1] (setting [8]) it was 418 ± 15.7 µM.

As to NCSIHGDIPAY [Peptide U7], the IC50 is 524 ± 35.8 µM with HepG2 [2]; 584 ± 30 µM in the assay on T47D (setting [5]); 485 to 703 µM with T47D (setting [6]); 266 to 458 µM in the assay on MCF-7 [1] (setting [7]); 554 ± 44.4 µM in the assay on MCF-7 [1] (setting [9]); 349 ± 25.3 µM in the assay with MCF-7 [1] (setting [8]).

As to TFPCSASNK [Peptide U8], the IC50 is 4710 ± 83.6 µM with T47D (setting [5]), 1990 to 11100 µM in the assay on T47D (setting [6]), 518 to 792 µM in the assay with MCF-7 [1] (setting [7]) and 641 ± 43.8 µM in the assay with MCF-7 [1] (setting [8]).

As to `Clc1ccc(C(c2ccccc2Cl)C(Cl)Cl)cc1` (centres unmarked) [Mitotane], the results for the IC50 in the assay with HepG2 [3] and in the assay with MCF-7 [4] were 40.1 ± 4.69 µM and 76.3 ± 5.04 µM, respectively. For the same molecule, the figures for the “% of cell viability of HepG2, mitotane alone” value with HepG2 [2] and in the assay on HepG2 [2] (listed as mitotane) were 41% and 41.86 ± 4.54%, respectively. Also, the “HepG2 IC50 fold lower than MCF-7” value in the assay with HepG2 [2] (mitotane alone, HepG2 versus MCF-7) is 2 fold. The results for the “% of cell viability of MCF-7, mitotane alone” value with MCF-7 [1] and in the assay on MCF-7 [1] (listed as mitotane) were 59% and 59.05 ± 1.83%, respectively.

With DEEENTHISTR [Peptide U5], the IC50 was 1260 ± 62.5 µM with T47D (setting [5]), 866 to 1830 µM in the assay on T47D (setting [6]), 549 to 1090 µM with MCF-7 [1] (setting [7]) and 773 ± 44.5 µM with MCF-7 [1] (setting [8]).

As to NQADSSPSS [Peptide U2], the IC50 with T47D (setting [5]) is 1510 ± 78 µM; in the assay on T47D (setting [6]) it was 1140 to 1990 µM; in the assay with MCF-7 [1] (setting [7]), 451 to 1030 µM; in the assay on MCF-7 [1] (setting [8]) it was 682 ± 32 µM.

With SSQGYGSSPSPTPR [Peptide U1], the IC50 with T47D (setting [5]) was 599 ± 20.4 µM; with T47D (setting [6]) it was 458 to 784 µM; with MCF-7 [1] (setting [7]) it was 1010 to 2260 µM; with MCF-7 [1] (setting [8]), 1510 ± 71.7 µM.
